Measured values from patent US5387670A, “Antibiotic, deoxymulundocandin, a process for its production and its use as medicament” (Hoechst Aktiengesellschaft, priority 1990, dated 1995).
Numbered stars: 1 amine (or outer) side, 2 acyl side, 3 side chain; on linkers, the order of the positions; unused ones are H or OH. Bridge positions count the residues as written; N and C are the ends. Square brackets hold non-standard residues; d marks the D form. Peptide text beside a SMILES is read from it. * marks the point of attachment. Orn(4R-OH,5R-OH) = O=C([C@H](C[C@@H](O)[C@@H](O)N[*:3])N[*:1])[*:2]; Pro(3S-OH,4S-Me) = C[C@H]1CN[C@H](C(=O)O)[C@H]1O; hTyr(3R-OH) = N[C@H](C(=O)O)[C@H](O)Cc1ccc(O)cc1; Hyp = O=C(O)[C@@H]1C[C@@H](O)CN1; X1 = CCC(C)CCCCCCCCCCC(=O)*

Key:
Candida albicans = experiment: Minimum inhibitory concentration; format: cell-based
Saccharomycis cerevisiae = experiment: Minimum inhibitory concentration; format: cell-based
Aspergillus niger = experiment: Minimum inhibitory concentration; format: cell-based
Penicillium italicum = experiment: Minimum inhibitory concentration; format: cell-based
Cladosporium species = experiment: Minimum inhibitory concentration; format: cell-based
Cercospora beticola 71 = experiment: Minimum inhibitory concentration; format: cell-based
Botrytis cinerea 47 = experiment: Minimum inhibitory concentration; format: cell-based
Botrytis cinerea 57 = experiment: Minimum inhibitory concentration; format: cell-based
Botrytis cinerea 211 = experiment: Minimum inhibitory concentration; format: cell-based
Botrytis cinerea 212 = experiment: Minimum inhibitory concentration; format: cell-based
[1] = tested on: Trichophyton mentagrophytes; experiment: Minimum inhibitory concentration; format: cell-based
Microsporum gypseum = experiment: Minimum inhibitory concentration; format: cell-based
Microsporum canis = experiment: Minimum inhibitory concentration; format: cell-based
[2] = Solubility (physicochemical properties)
Text: Physicochemical Properties of the New Antibiotic Deoxymulundocandin

Solubility ([2]; in methanol, dimethyl formamide, dimethyl sulfoxide): Soluble
Solubility ([2]; in water, acetone, acetonitrile, ethyl acetate, carbon tetrachloride, chloroform, benzene, petroleum ether): sparingly soluble
SMILES: CCC(C)CCCCCCCCCCC(=O)N[C@H]1C[C@@H](O)[C@@H](O)NC(=O)[C@@H]2[C@@H](O)[C@@H](C)CN2C(=O)[C@H](CO)NC(=O)[C@H]([C@H](O)Cc2ccc(O)cc2)NC(=O)[C@@H]2C[C@@H](O)CN2C(=O)[C@H]([C@@H](C)O)NC1=O (stereo partly drawn) [Deoxymulundocandin] (X1-[Orn(4R-OH,5R-OH)]T[Hyp][hTyr(3R-OH)]S[Pro(3S-OH,4S-Me)]; lactam 1-C)
Minimum Inhibitory Concentration (Candida albicans): 1.5 micrograms per milliliter
Minimum Inhibitory Concentration (Saccharomycis cerevisiae): 3.1 micrograms per milliliter
Minimum Inhibitory Concentration (Aspergillus niger): 3.1 micrograms per milliliter
Minimum Inhibitory Concentration (Penicillium italicum): 25 micrograms per milliliter
Minimum Inhibitory Concentration (Cladosporium species): 0.75 micrograms per milliliter
Minimum Inhibitory Concentration (Cercospora beticola 71): 6.25 micrograms per milliliter
Minimum Inhibitory Concentration (Botrytis cinerea 47): 6.25 micrograms per milliliter
Minimum Inhibitory Concentration (Botrytis cinerea 57): 50 micrograms per milliliter
Minimum Inhibitory Concentration (Botrytis cinerea 211): 25 micrograms per milliliter
Minimum Inhibitory Concentration (Botrytis cinerea 212): 25 micrograms per milliliter
Minimum Inhibitory Concentration [1]: < 0.18 micrograms per milliliter
Minimum Inhibitory Concentration (Microsporum gypseum): 0.18 micrograms per milliliter
Minimum Inhibitory Concentration (Microsporum canis): < 0.18 micrograms per milliliter
